Results reported in PubChem BioAssay (NCI).
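1) Cells in 96-well plates. 2) Compound, 48 h, 5 concentrations. 3) Linear interpolation between surrounding doses. 4) Unreached endpoint = highest concentration. TGI denotes the concentration required for complete inhibition of growth.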

Assays:
Experiment in all cases: NCI tumour cell line growth inhibition, 48 h
A498 renal = test system: A498 renal
ACHN renal = test system: ACHN renal
HCT-116 colon = test system: HCT-116 colon
HL-60(TB) leukemia = test system: HL-60(TB) leukemia
HOP-62 NSCLC = test system: HOP-62 NSCLC
M14 melanoma = test system: M14 melanoma
NCI-H23 lung = test system: NCI-H23 lung
NCI-H460 lung = test system: NCI-H460 lung
SF-295 CNS = test system: SF-295 CNS
SK-MEL-28 melanoma = test system: SK-MEL-28 melanoma
SK-OV-3 ovarian = test system: SK-OV-3 ovarian
SW-620 colon = test system: SW-620 colon
U251 CNS = test system: U251 CNS
RXF 393 renal = test system: RXF 393 renal
SNB-19 CNS = test system: SNB-19 CNS

SMILES | TGI (A498 renal) [µM] | TGI (ACHN renal) [µM] | TGI (HCT-116 colon) [µM] | TGI (HL-60(TB) leukemia) [µM] | TGI (HOP-62 NSCLC) [µM] | TGI (M14 melanoma) [µM] | TGI (NCI-H23 lung) [µM] | TGI (NCI-H460 lung) [µM] | TGI (SF-295 CNS) [µM] | TGI (SK-MEL-28 melanoma) [µM] | TGI (SK-OV-3 ovarian) [µM] | TGI (SW-620 colon) [µM] | TGI (U251 CNS) [µM] | TGI (RXF 393 renal) [µM] | TGI (SNB-19 CNS) [µM]
COC(=O)C1CC(c2ccc(Cl)cc2)=NO1 (centres undefined) | > 100 | > 100 | > 100 | > 100 | > 100 | > 100 | > 100 | > 100 | > 100 | > 100 | > 100 | > 100 | > 100 | – | –
O=C1C[C@@H]2[C@@H](CCC23CCCC3)N1 | > 100 | > 100 | > 100 | > 100 | > 100 | > 100 | > 100 | > 100 | > 100 | > 100 | > 100 | > 100 | > 100 | > 100 | > 100
Cc1ccc(C(=O)C(c2nc3n(c2O)C(=N)N=N3)c2nc3n(c2O)C(=N)N=N3)cc1 (centres undefined) | > 100 | > 100 | – | > 100 | – | > 100 | > 100 | > 100 | > 100 | > 100 | > 100 | > 100 | – | > 100 | > 100
CC1OC(OC2C(OC(=O)[C@]34CCC(C)(C)CC3C3=CCC5[C@@]6(C)C[C@H](O)[C@H](OC7OC(COC8OC(CO)C(O)C(O)C8O)C(O)C(O)C7O)[C@@](C)(C(=O)O)C6CC[C@@]5(C)C3(C)CC4)OCC(O)C2O)C(O)C(O)C1OC1OCC(O)C(O)C1O (some centres undefined) | > 100 | > 100 | – | > 100 | > 100 | – | > 100 | > 100 | > 100 | > 100 | > 100 | > 100 | > 100 | > 100 | > 100
Cc1ccc(NC(=O)CCc2nnc3s/c(=C\c4cccc([N+](=O)[O-])c4)c(=O)n23)cc1 | > 100 | > 100 | > 100 | – | > 100 | > 100 | > 100 | > 100 | > 100 | > 100 | > 100 | 38.6 | > 100 | > 100 | > 100
CO[C@H](C(=O)O[C@H]1C(=O)N2CC[C@@H]3CCC[C@H]1C32C)c1ccccc1 (some centres undefined) | – | > 100 | > 100 | > 100 | > 100 | > 100 | > 100 | > 100 | > 100 | > 100 | > 100 | > 100 | > 100 | > 100 | > 100
COc1cccc(N2C(=O)/C(=C/c3ccc(N(CCC#N)CCC#N)cc3)N=C2c2cc([N+](=O)[O-])ccc2Cl)c1 | > 100 | > 100 | – | > 100 | > 100 | > 100 | > 100 | > 100 | > 100 | > 100 | > 100 | > 100 | > 100 | – | > 100
CN1C(=S)CSc2ccccc21 | – | > 100 | > 100 | > 100 | > 100 | > 100 | > 100 | > 100 | – | > 100 | > 100 | > 100 | > 100 | > 100 | > 100
O=S1(=O)OCCOS(=O)(=O)C1(Cl)Cl | > 100 | – | > 100 | > 100 | > 100 | > 100 | > 100 | – | > 100 | > 100 | > 100 | > 100 | – | – | > 100
O=C1N=CN=C2C=CC(Cl)=C(I)C12 (centres undefined) | > 100 | > 100 | > 100 | > 100 | > 100 | > 100 | > 100 | > 100 | > 100 | > 100 | > 100 | > 100 | > 100 | 70.8 | > 100
CC(C)COC(=O)c1ccc(N=Cc2ccc(C=Nc3ccc(C(=O)OCC(C)C)cc3)cc2)cc1 | – | > 100 | – | > 100 | > 100 | > 100 | > 100 | > 100 | > 100 | > 100 | > 100 | > 100 | > 100 | – | > 100
O=C(CC(=O)N1N=C(n2ccc3ccccc32)CC1c1ccccc1)Nc1ccc(Cl)cc1 (centres undefined) | > 100 | > 100 | > 100 | > 100 | > 100 | > 100 | > 100 | > 100 | > 100 | > 100 | > 100 | > 100 | > 100 | > 100 | > 100
CC(=O)NNc1nc(C)c(C(/C=C/c2ccc(Cl)cc2)=N\N=C(N)N)s1 | – | > 100 | > 100 | > 100 | > 100 | > 100 | > 100 | > 100 | > 100 | > 100 | > 100 | > 100 | > 100 | > 100 | > 100
